Measured values from publication PMC7129073 (Clinical Microbiology and Infection, 2015).
Values after ≈ are worked out from the molar mass of the structure shown. Read-outs that look alike come from different tables or passages of the source.

Legend:
H. influenzae [1] = assay type: cell-based, Haemophilus influenzae
[2] = system: intestinal Escherichia coli; test: ampicillin resistance of intestinal isolates during treatment; design: species or system beagles; conditions: dog, in vivo
Escherichia coli O157:H7 = test: Kirby-Bauer susceptibility; assay type: cell-based; conditions: 30 strains, 1990–2003
H. influenzae [3] = test: Disk diffusion, sputum isolates Athens 2001–2004; assay type: cell-based, Haemophilus influenzae
Shigella spp. = test: Disk diffusion, stool isolates Tehran; assay type: cell-based; conditions: 96 isolates
E. faecalis [4] = test: E-test susceptibility; assay type: cell-based, Enterococcus faecalis
Staphylococcus aureus = test: Susceptibility testing; assay type: cell-based; conditions: conjunctival isolates 2000–2004
[5] = system: Pseudomonas putida clinical isolates; test: Agar dilution MIC; assay type: cell-based
Salmonella spp. = test: Agar dilution susceptibility, gastroenteritis isolates Cuba; assay type: cell-based; conditions: 34 strains, 2002
enterococci = test: Disk diffusion and E-test, faecal isolates of cancer patients; assay type: cell-based, Enterococcus; conditions: 38 strains
PRSP = test: Broth microdilution; assay type: cell-based, Streptococcus pneumoniae
Moraxella spp. = test: Disk diffusion; assay type: cell-based; conditions: 35 isolates
[6] = system: Salmonella, other 49 serotypes; test: Disk diffusion, food isolates Spain; assay type: cell-based; conditions: n = 115
[7] = system: Salmonella serotype Enteritidis; test: Disk diffusion, food isolates Spain; assay type: cell-based; conditions: n = 96
Haemophilus influenzae = test: Susceptibility testing; assay type: cell-based; conditions: conjunctival isolates 2000–2004
H. influenzae [8] = test: MIC of invasive strains, Saint George Hospital 2001–2004; assay type: cell-based, Haemophilus influenzae; conditions: n = 129
H.influenzae [9] = test: PROTEKT Italy, NCCLS microdilution; assay type: cell-based, Haemophilus influenzae
[10] = system: Staphylococcus coagulase negative (CNS); test: Susceptibility testing; assay type: cell-based; conditions: conjunctival isolates 2000–2004
Escherichia coli = test: Vitek 2 susceptibility, urine isolates of children; assay type: cell-based
E. coli = test: Disk diffusion, urine isolates of BPH patients; conditions: strains isolated after operative intervention
[11] = system: Salmonella serotype Typhimurium; test: Disk diffusion, food isolates Spain; assay type: cell-based; conditions: n = 53
H. influenzae [12] = test: Broth microdilution; assay type: cell-based, Haemophilus influenzae; conditions: 267 isolates
S. pneumoniae [13] = test: Broth microdilution; assay type: cell-based, Streptococcus pneumoniae
ERSP = test: Broth microdilution; assay type: cell-based, Streptococcus pneumoniae; conditions: Streptococcus pneumoniae
H. influenzae [14] = test: Disk diffusion; assay type: cell-based, Haemophilus influenzae; conditions: 237 isolates
C. jejuni ATCC 33560 = test: VetMIC broth microdilution, QC strain; assay type: cell-based; conditions: Campylobacter jejuni, ATCC33560, read-out: QC limits (MIC)
M. catarrhalis = test: PROTEKT Italy, NCCLS microdilution; assay type: cell-based, Moraxella catarrhalis
E. faecalis [15] = test: Italian survey of severe infections 2003, MIC; assay type: cell-based, Enterococcus faecalis
H.influenzae [16] = test: Broth microdilution; assay type: cell-based, Haemophilus influenzae
H. influenzae (HI) = test: SENTRY Brazil, NCCLS broth microdilution; assay type: cell-based, Haemophilus influenzae
[17] = Mediterranean spotted fever, randomised therapeutic study; assay type: in vivo, human
[18] = system: Streptococcus pneumoniae (SPN); test: MIC; assay type: cell-based; conditions: 8378 isolates
[19] = system: Moraxella catarrhalis (MC); test: MIC; assay type: cell-based; conditions: 2497 isolates
Nocardia spp. = test: E-test on Mueller Hinton agar, 81 clinical isolates; assay type: cell-based; conditions: Nocardia
[20] = system: C. pneumoniae target genes (LcrD, YscL, YscN, IncA, IncC, TyrB, GlyA); test: Chlamydial gene expression; assay type: cell-based, Chlamydia pneumoniae; conditions: moxifloxacin 3.1 μg/ml, clarithromycin 2 μg/ml; peaking at 120 h
[21] = system: Streptococcus pyogenes (SPY); test: MIC; assay type: cell-based; conditions: 2522 isolates
S. aureus [22] = test: E-test susceptibility; assay type: cell-based, Staphylococcus aureus
[23] = system: glycopeptide intermediate Staphylococcus species (GISS); test: VITEK II, screening plate and E test, blood isolates; assay type: cell-based, coagulase-negative Staphylococci; conditions: for MIC: Staphylococcus
[24] = system: foreign body infection Staphylococcus epidermidis strains; test: NCCLS disk diffusion; assay type: cell-based; conditions: 86 strains
S. aureus [25] = test: susceptibility of bloodstream isolates; assay type: cell-based
MRSA [26] = test: Disk diffusion; assay type: cell-based, Staphylococcus aureus; conditions: 200 isolates
[27] = system: Staphylococcus haemolyticus; test: E-test, classical method and macromethod; assay type: cell-based
S. pneumoniae [28] = assay type: cell-based, Streptococcus pneumoniae
[29] = system: Staphylococci epidermidis; test: E-test, classical method and macromethod; assay type: cell-based, Staphylococcus epidermidis; conditions: four strains: 8, 8, 12, 12; BHI agar, 2.0 McFarland, 48 h
MRSA [30] = test: Agar dilution MIC; assay type: cell-based, Staphylococcus aureus
E. faecium = test: E-test susceptibility; assay type: cell-based, Enterococcus faecium
[31] = system: viridans group streptococci (VgS) and Streptococcus bovis; test: Broth microdilution and disk diffusion; assay type: cell-based; conditions: nine species
S. aureus 10 = test: in vitro dynamic model, enrichment of resistant mutants; assay type: cell-based
[32] = system: agr− group II S. aureus (RN9120); test: in vitro pharmacodynamic model, MIC by E-test and microdilution; assay type: cell-based; conditions: Staphylococcus aureus, read-out: post-exposure MIC
CA-MRSA = test: MIC, MBC; assay type: cell-based, Staphylococcus aureus; conditions: time kill, two strains
MDR-MRSA = test: MIC, MBC; assay type: cell-based, Staphylococcus aureus; conditions: time kill, two strains
[33] = system: viridans group streptococci (VGS); test: MIC; assay type: cell-based
[34] = system: agr+ group II S. aureus (RN6607); test: in vitro pharmacodynamic model, MIC by E-test and microdilution; assay type: cell-based; conditions: Staphylococcus aureus, 72 h, read-out: post-exposure MIC
MSSA = test: Agar dilution MIC; assay type: cell-based, Staphylococcus aureus
[35] = system: Stenotrophomonas maltophilia; test: E-test, sputum isolates of children with cystic fibrosis; assay type: cell-based; conditions: 2000–2004
Acinetobacter = test: Disk diffusion; assay type: cell-based; conditions: 37 isolates selected as resistant to beta-lactams
S. maltophilia = test: Susceptibility of respiratory isolates of cancer patients; assay type: cell-based, Stenotrophomonas maltophilia; conditions: 40 patients
[36] = NCCLS breakpoints (Amox/Clav 2/1 mcg/mL)

CC1(C)S[C@@H]2[C@H](NC(=O)[C@H](N)c3ccccc3)C(=O)N2[C@H]1C(=O)O [ampicillin]
resistant (H. influenzae [1]): 4.7%
proportion of ampicillin-resistant isolates during treatment [2]: 98%
resistant strains (Escherichia coli O157:H7): 13.3%
resistance rate (H. influenzae [3]; 2001–2002): 10.9%
resistance rate (H. influenzae [3]; 2003–2004): 23.1%
resistance (Shigella spp.): 100%
Susceptibility (E. faecalis [4]; ICU, SRGA breakpoints, tigecycline tentative ≤2 μg/ml): 99/99%
Susceptibility (E. faecalis [4]; non-ICU): 99/99%
resistant isolates (Staphylococcus aureus): 66.6%
MIC [5]: > 128 µg/mL
resistance (Salmonella spp.): 44%
resistant strains (enterococci; gentamycin: high level): 50%
%Sus (PRSP; [36]): 0.0%
MIC90 (PRSP; Streptococcus pneumoniae, PRSP): 8 µg/mL (≈ 22.9 µM)
Susceptible isolates (Moraxella spp.): 49%
resistant isolates (Moraxella spp.): 51%
resistance rate (NCCLS M100-S13) [6]: 14%
resistance rate (NCCLS M100-S13) [7]: 8%
resistant isolates (Haemophilus influenzae): 9.5%
resistant isolates (H. influenzae [8]): 60%
resistance (H.influenzae [9]; year 1): 26.5%
resistance (H.influenzae [9]; year 2): 20.6%
resistant isolates [10]: 79.5%
susceptibility rate (Escherichia coli; paediatric surgical unit (PSU)): 15%
susceptibility rate (Escherichia coli; paediatric units (PU)): 54%
resistance (E. coli): 93.1%
resistance rate (NCCLS M100-S13) [11]: 62%
resistant (H. influenzae [12]): 5.2%
%Sus (S. pneumoniae [13]; [36]): 0.0%
MIC90 (S. pneumoniae [13]; Streptococcus pneumoniae): 4 µg/mL (≈ 11.4 µM)
MIC90 (ERSP): 8 µg/mL (≈ 22.9 µM)
Susceptible isolates (H. influenzae [14]): 92%
MIC (C. jejuni ATCC 33560): 2 to 8 µg/mL (≈ 5.72 to 22.9 µM)
susceptibility rate (M. catarrhalis; year 1): 22.7%
susceptibility rate (M. catarrhalis; year 2): 18.9%
resistance (E. faecalis [15]): 0.4%
MIC90 (H.influenzae [16]; Haemophilus influenzae): > 16 µg/mL
%Sus (H.influenzae [16]; NCCLS): 74.6%

CC[C@H]1OC(=O)[C@H](C)[C@@H](O[C@H]2C[C@@](C)(OC)[C@@H](O)[C@H](C)O2)[C@H](C)[C@@H](O[C@@H]2O[C@H](C)C[C@H](N(C)C)[C@H]2O)[C@](C)(OC)C[C@@H](C)C(=O)[C@H](C)[C@@H](O)[C@]1(C)O [clarithromycin]
% S (H. influenzae (HI); 1998): 90%
% S (H. influenzae (HI); 1999): 100%
% S (H. influenzae (HI); 2000): 92%
% S (H. influenzae (HI); 2001): 91%
% S (H. influenzae (HI); 2002): 90%
% S (H. influenzae (HI); 2003): 94%
adverse reactions or relapses ([17]; either group): no adverse reactions
time for disappearance of the fever after treatment ([17]; group A n=14, group B n=20): 2.57 ± 1.7 days
time to disappearance of symptoms ([17]; group A n=14, group B n=20): 4.35 ± 2.5 days
MIC90 [18]: 0.5 ig/ml
resistance (H.influenzae [9]; year 1): 36.9%
resistance (H.influenzae [9]; year 2): 25.7%
MIC90 [19]: 0.5 ig/ml
MIC50 (Nocardia spp.): 8 µg/mL (≈ 10.7 µM)
MIC90 (Nocardia spp.): 96 µg/mL (≈ 128 µM)
upregulation of mRNA of all target genes [20]: less prominent
MIC90 [21]: 0.12 ig/ml

Cc1onc(-c2ccccc2)c1C(=O)N[C@@H]1C(=O)N2[C@@H]1SC(C)(C)[C@@H]2C(=O)O [oxacillin]
Susceptibility (S. aureus [22]; ICU, SRGA breakpoints, tigecycline tentative S ≤2 μg/ml): 97%
Susceptibility (S. aureus [22]; non-ICU): 98%
% isolates resistant (S. aureus [22]; total): 2%
sensitive strains ([23]; six out of 73): 8,2%
% resistant [24]: More than 30%
resistance (S. aureus [25]): 43%

CN[C@H](CC(C)C)C(=O)N[C@H]1C(=O)N[C@@H](CC(N)=O)C(=O)N[C@H]2C(=O)N[C@H]3C(=O)N[C@H](C(=O)N[C@H](C(=O)O)c4cc(O)cc(O)c4-c4cc3ccc4O)[C@H](O)c3ccc(c(Cl)c3)Oc3cc2cc(c3O[C@@H]2O[C@H](CO)[C@@H](O)[C@H](O)[C@H]2O[C@H]2C[C@](C)(N)[C@H](O)[C@H](C)O2)Oc2ccc(cc2Cl)[C@H]1O [vancomycin]
sensitivity (MRSA [26]): All isolates were sensitive
MIC ([27]; read-out: MIC, classical E-test): 3 µg/mL (≈ 2.07 µM)
MIC ([27]; read-out: MIC, macromethod of E-test): 32 µg/mL (≈ 22.1 µM)
resistant (S. pneumoniae [28]): 0%
MIC, macromethod of E-test [29]: 12 µg/mL
MIC50 (MRSA [30]; Staphylococcus aureus, MRSA): < 1 µg/mL
MIC90 (MRSA [30]; Staphylococcus aureus, MRSA): < 1 µg/mL
MIC range (MRSA [30]; n = 50): 1 µg/mL (≈ 0.69 µM)
Susceptibility (E. faecium; ICU): 93%
Susceptibility (E. faecium; non-ICU): 98%
% isolates resistant (VRE) (E. faecium; total): 4%
% S, range between species [31]: 100.0%
AUC/MIC predicted to protect from selection of resistant mutants (S. aureus 10): 256 h
AUC/MIC at which resistant mutants were selected (S. aureus 10; five-day treatment): 32 to 128 h
sensitivity of all isolated strains (enterococci): All the isolated strains were sensitive
MIC [32]: 6 µg/mL (≈ 4.14 µM)
Δ Log10 CFU/ml (CA-MRSA): −3.78 Log10 CFU/ml
MIC ([23]; read-out: MIC of intermediate sensitive strains): 8 to 12 µg/mL
MIC ([23]; read-out: MIC of resistant strain): 32 µg/mL
Δ Log10 CFU/ml (MDR-MRSA): −3.97 Log10 CFU/ml
MIC50 [33]: 0.5 µg/mL (≈ 0.345 µM)
MIC90 [33]: 1 µg/mL (≈ 0.69 µM)
tolerant isolates ([33]; 83 isolates, tolerance to VA and TP): 77.6%
susceptibility of all isolates ([33]; NCCLS): All isolates were susceptible
MIC [34]: ≤ 2 µg/mL
MIC50 (MSSA; Staphylococcus aureus, MSSA): < 0.5 µg/mL
MIC90 (MSSA; Staphylococcus aureus, MSSA): < 1 µg/mL
MIC range (MSSA; n = 200): 0.5 to 1 µg/mL (≈ 0.345 to 0.69 µM)

ticarcillin/clavulanic acid
sensitivity [35]: 59.3%
resistant isolates (Acinetobacter): 32.4%
Susceptible isolates (S. maltophilia): 65%
